# In ChEMBL document CHEMBL5120927, “LEGO-Lipophosphonoxins: A Novel Approach in Designing Membrane Targeting Antimicrobials” (J Med Chem, 2022):
# How the values were obtained:
# Staphylococcus aureus [1] = test: Antibacterial activity against […] Staphylococcus aureus 4460/A assessed as reduction in microbial growth incubated for 24 hrs by microdilution assay; type: functional
# Staphylococcus aureus [2] = test: Antibacterial activity against wild type methicillin resistant Staphylococcus aureus 4968/C assessed as reduction in microbial growth incubated for 24 hrs by microdilution assay; type: functional
# Staphylococcus aureus [3] = test: Antibacterial activity against wild type Staphylococcus aureus 4557/A assessed as reduction in microbial growth incubated for 24 hrs by microdilution assay; type: functional
# Staphylococcus aureus [4] = test: Antibacterial activity against wild type Staphylococcus aureus 78/CF assessed as reduction in microbial growth incubated for 24 hrs by microdilution assay; type: functional
# Staphylococcus aureus [5] = test: Antibacterial activity against […] Staphylococcus aureus 4461/A assessed as reduction in microbial growth incubated for 24 hrs by microdilution assay; type: functional
# Staphylococcus aureus [6] = test: Antibacterial activity against wild type Staphylococcus aureus 4788/B assessed as reduction in microbial growth incubated for 24 hrs by microdilution assay; type: functional
# Staphylococcus aureus [7] = test: Antibacterial activity against wild type Staphylococcus aureus 4482/A assessed as reduction in microbial growth incubated for 24 hrs by microdilution assay; type: functional
# Staphylococcus aureus [8] = test: Antibacterial activity against wild type Staphylococcus aureus 4566/A assessed as reduction in microbial growth incubated for 24 hrs by microdilution assay; type: functional
# Staphylococcus aureus [9] = test: Antibacterial activity against wild type Staphylococcus aureus 4515/A assessed as reduction in microbial growth incubated for 24 hrs by microdilution assay; type: functional
# Staphylococcus aureus [10] = test: Antibacterial activity against wild type methicillin resistant Staphylococcus aureus 4561/A assessed as reduction in microbial growth incubated for 24 hrs by microdilution assay; type: functional
# Staphylococcus aureus [11] = test: Antibacterial activity against wild type Staphylococcus aureus 4883/C assessed as reduction in microbial growth incubated for 24 hrs by microdilution assay; type: functional
# Staphylococcus aureus [12] = test: Antibacterial activity against wild type Staphylococcus aureus 4504/A assessed as reduction in microbial growth incubated for 24 hrs by microdilution assay; type: functional
# Staphylococcus aureus [13] = test: Antibacterial activity against wild type Staphylococcus aureus 4717/B assessed as reduction in microbial growth incubated for 24 hrs by microdilution assay; type: functional
# Staphylococcus aureus [14] = test: Antibacterial activity against […] Staphylococcus aureus 4463/A assessed as reduction in microbial growth incubated for 24 hrs by microdilution assay; type: functional
# Staphylococcus aureus [15] = test: Antibacterial activity against antibiotic resistant Staphylococcus aureus 77/CF assessed as reduction in microbial growth incubated for 24 hrs by microdilution assay; type: functional
# Staphylococcus aureus [16] = test: Antibacterial activity against wild type Staphylococcus aureus 4679/B assessed as reduction in microbial growth incubated for 24 hrs by microdilution assay; type: functional
# Staphylococcus aureus [17] = test: Antibacterial activity against wild type Staphylococcus aureus 5079/C assessed as reduction in microbial growth incubated for 24 hrs by microdilution assay; type: functional
# Staphylococcus aureus [18] = test: Antibacterial activity against wild type Staphylococcus aureus 4740/B assessed as reduction in microbial growth incubated for 24 hrs by microdilution assay; type: functional
# Staphylococcus aureus [19] = test: Antibacterial activity against wild type Staphylococcus aureus 4738/B assessed as reduction in microbial growth incubated for 24 hrs by microdilution assay; type: functional
# Staphylococcus aureus [20] = test: microbe, parasite or virus in culture; settings: 4880/C, 24 h
# Description: Antibacterial activity against wild type Staphylococcus aureus 4880/C assessed as reduction in microbial growth incubated for 24 hrs by microdilution assay
# Staphylococcus aureus [21] = test: Antibacterial activity against wild type Staphylococcus aureus 4904/C assessed as reduction in microbial growth incubated for 24 hrs by microdilution assay; type: functional
# Staphylococcus aureus [22] = test: Antibacterial activity against wild type methicillin resistant Staphylococcus aureus 5017/C assessed as reduction in microbial growth incubated for 24 hrs by microdilution assay; type: functional
# Staphylococcus aureus [23] = test: Antibacterial activity against wild type Staphylococcus aureus 4502/A assessed as reduction in microbial growth incubated for 24 hrs by microdilution assay; type: functional
# Staphylococcus aureus [24] = test: microbe, parasite or virus in culture; settings: 4862/C, 24 h
# Description: Antibacterial activity against wild type Staphylococcus aureus 4862/C assessed as reduction in microbial growth incubated for 24 hrs by microdilution assay
# Pseudomonas aeruginosa = test: Antibacterial activity against Pseudomonas aeruginosa assessed as reduction in microbial growth measured after 20 cycles by microdilution assay; type: functional; settings: Pseudomonas aeruginosa; time 24 hrs
# Staphylococcus aureus [25] = test: Antibacterial activity against antibiotic resistant Staphylococcus aureus 4740/B assessed as reduction in microbial growth incubated for 24 hrs by microdilution assay; type: functional
# Staphylococcus aureus [26] = test: Antibacterial activity against wild type Staphylococcus aureus 4561/A assessed as reduction in microbial growth incubated for 24 hrs by microdilution assay; type: functional
# Staphylococcus aureus [27] = test: Antibacterial activity against antibiotic resistant Staphylococcus aureus 4679/B assessed as reduction in microbial growth incubated for 24 hrs by microdilution assay; type: functional
# Staphylococcus aureus [28] = test: Antibacterial activity against wild type Staphylococcus aureus 4968/C assessed as reduction in microbial growth incubated for 24 hrs by microdilution assay; type: functional
# Staphylococcus aureus [29] = test: Antibacterial activity against antibiotic resistant Staphylococcus aureus 4504/A assessed as reduction in microbial growth incubated for 24 hrs by microdilution assay; type: functional
# Staphylococcus aureus [30] = test: Antibacterial activity against antibiotic resistant Staphylococcus aureus 4502/A assessed as reduction in microbial growth incubated for 24 hrs by microdilution assay; type: functional
compound,measurement,setting,value
CCC[C@@H]1C[C@@H](C(=O)N[C@@H]([C@H]2O[C@H](SC)[C@H](O)[C@@H](O)[C@H]2O)[C@H](C)Cl)N(C)C1 [CLINDAMYCIN],MIC,Staphylococcus aureus [1],0.125 µg/mL
same,MIC,Staphylococcus aureus [2],> 8 µg/mL
same,MIC,Staphylococcus aureus [3],0.125 µg/mL
same,MIC,Staphylococcus aureus [4],0.063 µg/mL
same,MIC,Staphylococcus aureus [5],0.125 µg/mL
same,MIC,Staphylococcus aureus [6],0.063 µg/mL
same,MIC,Staphylococcus aureus [7],0.125 µg/mL
same,MIC,Staphylococcus aureus [8],0.125 µg/mL
same,MIC,Staphylococcus aureus [9],0.125 µg/mL
same,MIC,Staphylococcus aureus [10],> 4 µg/mL
same,MIC,Staphylococcus aureus [11],0.125 µg/mL
same,MIC,Staphylococcus aureus [12],0.125 µg/mL
same,MIC,Staphylococcus aureus [13],0.125 µg/mL
same,MIC,Staphylococcus aureus [14],0.125 µg/mL
same,MIC,Staphylococcus aureus [15],> 8 µg/mL
same,MIC,Staphylococcus aureus [16],0.125 µg/mL
same,MIC,Staphylococcus aureus [17],0.063 µg/mL
same,MIC,Staphylococcus aureus [18],0.125 µg/mL
same,MIC,Staphylococcus aureus [19],0.125 µg/mL
same,MIC,Staphylococcus aureus [20],0.25 µg/mL
same,MIC,Staphylococcus aureus [21],0.125 µg/mL
same,MIC,Staphylococcus aureus [22],> 8 µg/mL
same,MIC,Staphylococcus aureus [23],0.063 µg/mL
same,MIC,Staphylococcus aureus [24],0.125 µg/mL
CC(C)(O/N=C(\C(=O)N[C@@H]1C(=O)N2C(C(=O)[O-])=C(C[n+]3ccccc3)CS[C@H]12)c1csc(N)n1)C(=O)O [CEFTAZIDIME],MIC,Pseudomonas aeruginosa,128 µg/mL
CC[C@H]1OC(=O)[C@H](C)[C@@H](O[C@H]2C[C@@](C)(OC)[C@@H](O)[C@H](C)O2)[C@H](C)[C@@H](O[C@@H]2O[C@H](C)C[C@H](N(C)C)[C@H]2O)[C@](C)(O)C[C@@H](C)C(=O)[C@H](C)[C@@H](O)[C@]1(C)O [ERYTHROMYCIN],MIC,Staphylococcus aureus [1],0.25 µg/mL
same,MIC,Staphylococcus aureus [2],> 16 µg/mL
same,MIC,Staphylococcus aureus [3],0.25 µg/mL
same,MIC,Staphylococcus aureus [4],0.125 µg/mL
same,MIC,Staphylococcus aureus [5],0.25 µg/mL
same,MIC,Staphylococcus aureus [6],0.125 µg/mL
same,MIC,Staphylococcus aureus [7],0.25 µg/mL
same,MIC,Staphylococcus aureus [8],0.25 µg/mL
same,MIC,Staphylococcus aureus [9],0.25 µg/mL
same,MIC,Staphylococcus aureus [10],> 4 µg/mL
same,MIC,Staphylococcus aureus [25],> 16 µg/mL
same,MIC,Staphylococcus aureus [11],0.25 µg/mL
same,MIC,Staphylococcus aureus [12],0.25 µg/mL
same,MIC,Staphylococcus aureus [13],0.25 µg/mL
same,MIC,Staphylococcus aureus [14],0.25 µg/mL
same,MIC,Staphylococcus aureus [15],> 16 µg/mL
same,MIC,Staphylococcus aureus [16],0.25 µg/mL
same,MIC,Staphylococcus aureus [17],0.25 µg/mL
same,MIC,Staphylococcus aureus [19],0.25 µg/mL
same,MIC,Staphylococcus aureus [20],0.25 µg/mL
same,MIC,Staphylococcus aureus [21],0.25 µg/mL
same,MIC,Staphylococcus aureus [22],> 16 µg/mL
same,MIC,Staphylococcus aureus [23],0.125 µg/mL
same,MIC,Staphylococcus aureus [24],0.25 µg/mL
GENTAMICIN,MIC,Staphylococcus aureus [26],0.25 µg/mL
same,MIC,Staphylococcus aureus [27],> 32 µg/mL
same,MIC,Staphylococcus aureus [1],0.25 µg/mL
same,MIC,Staphylococcus aureus [28],0.25 µg/mL
same,MIC,Staphylococcus aureus [3],1 µg/mL
same,MIC,Staphylococcus aureus [4],1 µg/mL
same,MIC,Staphylococcus aureus [29],> 32 µg/mL
same,MIC,Staphylococcus aureus [5],0.25 µg/mL
same,MIC,Staphylococcus aureus [6],0.25 µg/mL
same,MIC,Staphylococcus aureus [7],0.25 µg/mL
same,MIC,Staphylococcus aureus [8],0.25 µg/mL
same,MIC,Staphylococcus aureus [9],0.25 µg/mL
same,MIC,Staphylococcus aureus [11],0.25 µg/mL
same,MIC,Staphylococcus aureus [30],> 32 µg/mL
same,MIC,Staphylococcus aureus [13],0.25 µg/mL
same,MIC,Staphylococcus aureus [14],0.25 µg/mL
same,MIC,Staphylococcus aureus [15],> 32 µg/mL
same,MIC,Staphylococcus aureus [17],0.25 µg/mL
same,MIC,Staphylococcus aureus [18],0.25 µg/mL
same,MIC,Staphylococcus aureus [19],0.25 µg/mL
same,MIC,Staphylococcus aureus [21],0.25 µg/mL
